One block for each compound: values may come before it.
How the values were obtained:
20S proteasome = test: Inhibition of human 20S proteasome chymotrypsin-like activity using Suc-Leu-Leu-Val-Tyr-AMC as fluorogenic peptide pre-incubated for 10 mins with compound followed by substrate addition for 60 mins by spectrofluorimetric analysis; type: protein-complex assay
RPMI-8226 [1] = test: Cytotoxicity against human RPMI-8226 cells assessed as inhibition of cell proliferation incubated for 72 hrs by Cell Titer-Glo luminescence assay; type: functional, cell-based; settings: RPMI-8226, 72 h
[2] = Stability of the compound in stimulated […] fluid at pH 1.2 measured after 1 min; type: ADME; settings: simulated gi fluid, pH 1.2, 1 min
[3] = Stability of the compound in stimulated […] fluid at pH 1.2 measured after 2 hrs; type: ADME; settings: simulated gi fluid, pH 1.2, 2 h
[4] = Stability of the compound in stimulated […] fluid at pH 1.2 measured after 4 hrs; type: ADME; settings: simulated gi fluid, pH 1.2, 4 h
[5] = Stability of the compound in stimulated […] fluid at pH 1.2 measured after 8 hrs; type: ADME; settings: simulated gi fluid, pH 1.2, 8 h
[6] = Stability of the compound in stimulated […] fluid at pH 1.2 measured after 12 hrs; type: ADME; settings: simulated gi fluid, pH 1.2, 12 h
[7] = Stability of the compound in stimulated […] fluid at pH 6.8 measured after 1 min; type: ADME; settings: simulated intestinal fluid, read-out: Stability
[8] = Stability of the compound in stimulated […] fluid at pH 6.8 measured after 2 hrs; type: ADME; settings: simulated intestinal fluid, read-out: Stability
[9] = Stability of the compound in stimulated […] fluid at pH 6.8 measured after 4 hrs; type: ADME; settings: simulated intestinal fluid, read-out: Stability
[10] = Stability of the compound in stimulated […] fluid at pH 6.8 measured after 8 hrs; type: ADME; settings: simulated intestinal fluid, read-out: Stability
[11] = Stability of the compound in stimulated […] fluid at pH 6.8 measured after 12 hrs; type: ADME; settings: simulated intestinal fluid, read-out: Stability
[12] = Half life in human liver microsomes at 1 uM incubated for 2 to 60 mins in presence of NADPH by LC-MS/MS analysis; type: ADME, Microsome; settings: time 2-60 min
[13] = Half life in mouse liver microsomes at 1 uM incubated for 2 to 60 mins in presence of NADPH by LC-MS/MS analysis; type: ADME, Microsome; settings: time 2-60 min
[14] = Half life in rat liver microsomes at 1 uM incubated for 2 to 60 mins in presence of NADPH by LC-MS/MS analysis; type: ADME, Microsome; settings: time 2-60 min
[15] = Half life in dog liver microsomes at 1 uM incubated for 2 to 60 mins in presence of NADPH by LC-MS/MS analysis; type: ADME, Canis lupus familiaris, Microsome; settings: time 2-60 min
[16] = Half life in monkey liver microsomes at 1 uM incubated for 2 to 60 mins in presence of NADPH by LC-MS/MS analysis; type: ADME, Macaca mulatta, Microsome; settings: rhesus monkey, time 2-60 min
[17] = Intrinsic clearance in human liver microsomes at 1 uM incubated for 2 to 60 mins in presence of NADPH by LC-MS/MS analysis; type: ADME, Microsome; settings: time 2-60 min, read-out: CLH
[18] = Intrinsic clearance in mouse liver microsomes at 1 uM incubated for 2 to 60 mins in presence of NADPH by LC-MS/MS analysis; type: ADME, Microsome; settings: time 2-60 min, read-out: CLH
[19] = Intrinsic clearance in rat liver microsomes at 1 uM incubated for 2 to 60 mins in presence of NADPH by LC-MS/MS analysis; type: ADME, Microsome; settings: time 2-60 min, read-out: CLH
[20] = Intrinsic clearance in dog liver microsomes at 1 uM incubated for 2 to 60 mins in presence of NADPH by LC-MS/MS analysis; type: ADME, Canis lupus familiaris, Microsome; settings: time 2-60 min, read-out: CLH
[21] = Intrinsic clearance in monkey liver microsomes at 1 uM incubated for 2 to 60 mins in presence of NADPH by LC-MS/MS analysis; type: ADME, Macaca mulatta, Microsome; settings: rhesus monkey, time 2-60 min, read-out: CLH
[22] = Half life in Sprague-Dawley rat at 0.4 mg/kg,iv measured upto 24 hrs by LC-MS/MS analysis; type: ADME, organism-based; settings: in vivo
[23] = AUC (0-t) in Sprague-Dawley rat at 0.4 mg/kg,iv measured upto 24 hrs by LC-MS/MS analysis; type: ADME, organism-based; set-up: time < 24 hrs, dose 0.4 mg/kg, route iv; settings: in vivo
[24] = Cmax in Sprague-Dawley rat at 1.2 mg/kg,IG measured upto 24 hrs by LC-MS/MS analysis; type: ADME, organism-based; set-up: time < 24 hrs, dose 1.2 mg/kg, route ig; settings: in vivo, po
[25] = Tmax in Sprague-Dawley rat at 1.2 mg/kg,IG measured upto 24 hrs by LC-MS/MS analysis; type: ADME, organism-based; settings: in vivo, po
[26] = Half life in Sprague-Dawley rat at 1.2 mg/kg,IG measured upto 24 hrs by LC-MS/MS analysis; type: ADME, organism-based; settings: in vivo, po
[27] = AUC(0-t) in Sprague-Dawley rat at 1.2 mg/kg,IG measured upto 24 hrs by LC-MS/MS analysis; type: ADME, organism-based; set-up: dose 1.2 mg/kg, time < 24 hrs, route ig; settings: in vivo, po
[28] = Oral bioavailability in Sprague-Dawley rat at 1.2 mg/kg measured upto 24 hrs by LC-MS/MS analysis; type: ADME, organism-based; settings: in vivo
[29] = target: Voltage-gated inwardly rectifying potassium channel KCNH2 (Homo sapiens, UniProt Q12809); test: Inhibition of human ERG expressed in HEK293 cells; type: toxicity, cell-based
[30] = Toxicity in Balb/c mouse xenografted with human RPMI-8226 cells assessed as body weight loss at 6 mg/kg,po administrated biweekly for 21 days; type: organism-based; settings: in vivo, 504 h, time 21 day
[31] = Toxicity in Balb/c mouse xenografted with human RPMI-8226 cells assessed as body weight loss at 10 mg/kg,po administrated biweekly for 21 days; type: organism-based; settings: in vivo, 504 h, time 21 day
RPMI-8226 [32] = test: Antitumor activity against human RPMI-8226 cells xenografted in Balb/c mouse assessed as tumor growth inhibition at po administration biweekly for 21 days; type: functional, organism-based; settings: time 21.0 day

Sequence of Voltage-gated inwardly rectifying potassium channel KCNH2 (Q12809 whole entry): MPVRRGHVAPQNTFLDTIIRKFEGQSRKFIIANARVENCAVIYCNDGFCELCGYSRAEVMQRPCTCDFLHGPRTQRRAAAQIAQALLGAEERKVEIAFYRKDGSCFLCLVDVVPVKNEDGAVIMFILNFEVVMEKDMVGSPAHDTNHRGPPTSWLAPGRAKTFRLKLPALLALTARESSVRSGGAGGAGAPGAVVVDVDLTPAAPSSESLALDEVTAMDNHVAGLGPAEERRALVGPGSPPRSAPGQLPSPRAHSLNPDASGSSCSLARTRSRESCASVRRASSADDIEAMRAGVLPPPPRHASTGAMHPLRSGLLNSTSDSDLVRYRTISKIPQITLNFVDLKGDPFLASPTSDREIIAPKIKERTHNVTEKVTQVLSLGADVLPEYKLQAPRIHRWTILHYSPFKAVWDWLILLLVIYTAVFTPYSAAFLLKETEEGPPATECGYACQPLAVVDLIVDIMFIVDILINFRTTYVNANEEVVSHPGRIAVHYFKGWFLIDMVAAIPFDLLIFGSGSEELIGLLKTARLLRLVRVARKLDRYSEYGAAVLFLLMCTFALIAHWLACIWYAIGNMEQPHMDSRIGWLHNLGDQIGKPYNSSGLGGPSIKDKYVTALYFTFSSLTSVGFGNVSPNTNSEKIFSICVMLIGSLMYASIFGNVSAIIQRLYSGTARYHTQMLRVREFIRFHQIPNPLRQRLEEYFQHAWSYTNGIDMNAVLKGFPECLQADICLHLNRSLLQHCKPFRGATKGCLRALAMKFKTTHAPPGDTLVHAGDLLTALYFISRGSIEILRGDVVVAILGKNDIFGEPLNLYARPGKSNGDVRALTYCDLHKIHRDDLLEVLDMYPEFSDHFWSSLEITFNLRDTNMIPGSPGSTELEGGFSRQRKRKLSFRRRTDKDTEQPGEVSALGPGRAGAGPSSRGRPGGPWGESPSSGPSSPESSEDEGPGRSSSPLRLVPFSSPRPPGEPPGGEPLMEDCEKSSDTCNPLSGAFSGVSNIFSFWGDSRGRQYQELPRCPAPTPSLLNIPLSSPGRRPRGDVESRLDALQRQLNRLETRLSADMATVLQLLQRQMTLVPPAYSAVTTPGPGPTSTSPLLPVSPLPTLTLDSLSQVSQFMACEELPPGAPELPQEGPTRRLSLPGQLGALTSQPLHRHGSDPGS

Structure (SMILES): CC(C)C[C@H](NC(=O)C1(NC(=O)c2cc(C(F)(F)F)ccc2C(F)(F)F)CC1)B(O)O
IC50 (20S proteasome): 86.7 nM

Structure (SMILES): CC(C)C[C@H](NC(=O)CNC(=O)c1cc(Cl)ccc1Cl)B1OC2C3OC(C4C(=O)NC(=O)C34)C2(C)O1 (stereo partly drawn)
IC50 (20S proteasome): 22.4 nM
IC50 (RPMI-8226 [1]): 6.8 nM
Stability [2]: 70.91%
Stability [3]: 67.8%
Stability [4]: 70.5%
Stability [5]: 66.14%
Stability [6]: 66.9%
remaining at 1 min [7]: 15%
remaining at 2 h [8]: 11.4%
remaining at 4 h [9]: 11.4%
remaining at 8 h [10]: 13.5%
remaining at 12 h [11]: 10.8%

Structure (SMILES): CC(C)C[C@H](NC(=O)CNC(=O)c1cc(C(F)(F)F)ccc1C(F)(F)F)B(O)O
IC50 (20S proteasome): 5.2 nM
IC50 (RPMI-8226 [1]): 18.4 nM

Structure (SMILES): CC(C)C[C@H](NC(=O)C1(NC(=O)c2cc(C(F)(F)F)ccc2C(F)(F)F)CCCC1)B(O)O
IC50 (20S proteasome): 285 nM

Structure (SMILES): CC(C)C[C@H](NC(=O)CNC(=O)c1cc(Cl)ccc1Cl)B1OC2C3CC(C(=O)O)C(O3)C2O1 (stereo partly drawn)
IC50 (20S proteasome): 6.3 nM
IC50 (RPMI-8226 [1]): 4.4 nM
Stability [2]: 14.06%
Stability [3]: 83.62%
Stability [4]: 82.49%
Stability [5]: 78.47%
Stability [6]: 83.15%
remaining at 1 min [7]: 21%
remaining at 2 h [8]: 23.9%
remaining at 4 h [9]: 19.8%
remaining at 8 h [10]: 19.6%
remaining at 12 h [11]: 19.9%

Structure (SMILES): CC(C)C[C@H](NC(=O)CNC(=O)c1cc(Cl)ccc1Cl)B1OC2C3OC(CC3C(=O)O)C2(C)O1 (stereo partly drawn)
IC50 (20S proteasome): 5.2 nM
IC50 (RPMI-8226 [1]): 5 nM
Stability [2]: 6.7%
Stability [3]: 60.84%
Stability [4]: 61.18%
Stability [5]: 58.58%
Stability [6]: 58.21%
remaining at 1 min [7]: 7.36%
remaining at 2 h [8]: 12.9%
remaining at 4 h [9]: 12.4%
remaining at 8 h [10]: 12.5%
remaining at 12 h [11]: 14.2%

The remaining compounds from weak to strong by IC50 (20S proteasome), led by results:

IC50 (20S proteasome): 20.6 nM
Structure (SMILES): CC(C)C[C@H](NC(=O)CNC(=O)c1cc(F)ccc1F)B(O)O
IC50 (RPMI-8226 [1]): 41.5 nM

IC50 (20S proteasome): 15.8 nM
Structure (SMILES): COc1ccc(OC)c(C(=O)NCC(=O)N[C@@H](CC(C)C)B(O)O)c1
IC50 (RPMI-8226 [1]): 57.9 nM

IC50 (20S proteasome): 9.6 nM
Stability [2]: 62.06%
Stability [3]: 98.08%
Stability [4]: 97.62%
Stability [5]: 98.81%
Stability [6]: 96.98%
remaining at 1 min [7]: 90.1%
remaining at 2 h [8]: 83.7%
remaining at 4 h [9]: 91.5%
remaining at 8 h [10]: 85.7%
remaining at 12 h [11]: 78.7%
Structure (SMILES): CC(C)C[C@H](NC(=O)CNC(=O)c1cc(Cl)ccc1Cl)B1OC2(C)CCC(C(=O)O)CC2(C)O1 (stereo partly drawn)
IC50 (RPMI-8226 [1]): 5.3 nM

IC50 (20S proteasome): 2.7 nM
Stability [2]: 5.35%
Stability [3]: 56.83%
Stability [4]: 57.32%
Stability [5]: 58.67%
Stability [6]: 58.73%
remaining at 1 min [7]: 2.35%
remaining at 2 h [8]: 2.82%
remaining at 4 h [9]: 2.68%
remaining at 8 h [10]: 3.93%
remaining at 12 h [11]: 5.76%
half-life at 1 µM [12]: 66.6 min
half-life at 1 µM [13]: 36.7 min
half-life at 1 µM [14]: 24.9 min
half-life at 1 µM [15]: 84.5 min
half-life at 1 µM [16]: 38.9 min
microsomal CLint at 1 µM [17]: 20.8 µL/min/mg
microsomal CLint at 1 µM [18]: 37.8 µL/min/mg
microsomal CLint at 1 µM [19]: 55.6 µL/min/mg
microsomal CLint at 1 µM [20]: 16.4 µL/min/mg
microsomal CLint at 1 µM [21]: 35.6 µL/min/mg
half-life [22]: 1450 min
AUC(0-t) at 24 h [23]: 323 ng·h/mL
Cmax [24]: 46.5 ng/mL
Tmax [25]: 10.2 min
half-life [26]: 718 min
AUC(0-t) at 24 h [27]: 126 ng·h/mL
bioavailability [28]: 9.8%
Structure (SMILES): CC(C)C[C@H](NC(=O)C(NC(=O)c1cc(C(F)(F)F)ccc1C(F)(F)F)C1CC1)B1OC2C3OC(CC3C(=O)O)C2(C)O1 (stereo partly drawn)
IC50 (RPMI-8226 [1]): 2.9 nM

IC50 (20S proteasome): 2.2 nM
Stability [2]: 6.44%
Stability [3]: 59.73%
Stability [4]: 58.25%
Stability [5]: 58.68%
Stability [6]: 59.68%
remaining at 1 min [7]: 2.27%
remaining at 2 h [8]: 3.55%
remaining at 4 h [9]: 3.98%
remaining at 8 h [10]: 5.24%
remaining at 12 h [11]: 6.77%
half-life at 1 µM [12]: 28.3 min
half-life at 1 µM [13]: 28.3 min
half-life at 1 µM [14]: 25.2 min
half-life at 1 µM [15]: 72.9 min
half-life at 1 µM [16]: 8.8 min
microsomal CLint at 1 µM [17]: 49 µL/min/mg
microsomal CLint at 1 µM [18]: 49 µL/min/mg
microsomal CLint at 1 µM [19]: 55 µL/min/mg
microsomal CLint at 1 µM [20]: 19 µL/min/mg
microsomal CLint at 1 µM [21]: 158 µL/min/mg
half-life [22]: 1450 min
AUC(0-t) at 24 h [23]: 2270 ng·h/mL
Cmax [24]: 174 ng/mL
Tmax [25]: 49.8 min
half-life [26]: 1800 min
AUC(0-t) at 24 h [27]: 2680 ng·h/mL
bioavailability [28]: 34%
Structure (SMILES): CC(C)C[C@H](NC(=O)C(CC1CC1)NC(=O)c1cc(C(F)(F)F)ccc1C(F)(F)F)B1OC2C3OC(CC3C(=O)O)C2(C)O1 (stereo partly drawn)
IC50 (RPMI-8226 [1]): 5.6 nM
IC50 [29]: > 30 µM
Activity [30]: Non-Toxic
Activity [31]: Non-Toxic
Activity (RPMI-8226 [32]): Dose-Dependent Effect

From ChEMBL document CHEMBL5385891, “Design and discovery of novel dipeptide boronic acid ester proteasome inhibitors, an oral slowly-released prodrug for the treatment of multiple myeloma” (Eur J Med Chem, 2023)
